Test results from patent US20120164230A1, “Soluble Nanoparticles as Delivery Systems for Prodrugs” (priority 2007, published 2012).

Key:
NTera-2 cells [1] = assay: MTT cell proliferation / cytotoxicity assay; assay type: cell-based, human
Experimental: In order to evaluate the feasibility of this method for delivering a toxic dose of platinum, cytotoxicity assays of SWNT-Pt(IV) were conducted using the testicular carcinoma cell line NTera-2. Example 3 below describes these experiments, in which the MTT assay was used to determine cell viability following treatment for four days with either the free platinum(IV) complex 2 or with the SWNT-tethered analog (FIG. 2). Compared to cis-[Pt(NH3)2Cl2] (IC50=0.05 μM) the cytotoxicity of the asymmetrically substituted platinum(IV) compound 2 is insignificant (IC50>>0.5 mM). […] Without wishing to be bound to any particular theory, it is thought that this increase is due to the two-fold increase in uptake of Pt relative to free cisplatin.
Cell Culture. Cells from the human testicular cancer line NTera-2 were incubated at 37° C. in 5% CO2 and grown in DMEM (Dulbecco's Modified Eagle's Medium) medium supplemented with 10% fetal bovine serum and 1% penicillin/streptomycin. Cells were passaged every 3 to 4 days and reseeded from frozen stocks after reaching passage number 20.
Cell Proliferation Assay. Ntera-2cells were seeded into 96 well plates at a confluence of 1000 cells per well and incubated for 24 h. The cells were then treated with either cisplatin, compound 1, compound 2, or SWNT-Pt(IV) and incubated for 96 h. The cells were then treated with 20 μL of 3-(4,5-dimethylthiazol-2-yl)-2,5-diphenyltetrazolium bromide (MTT) (5 mg/mL in PBS) and incubated for 5 h. The medium was removed, the cells were lysed with 100 μL of DMSO, and the absorbance of the purple formazan was recorded at 550 nm. The results are presented in FIG. 2, FIG. 7, FIG. 8, and FIG. 9. […] (cisplatin).

[2] = Cyclic voltammetry, reduction potential; assay type: physicochemical; settings: vs Ag/AgCl; for reduction potential (reduction peak) extrapolated to 0.0 mV s^-1 scan rate: pH 6.0, 0.1 M KCl phosphate buffer; for reduction potential extrapolated to 0.0 mV s^-1 scan rate: pH 7.4, 0.1 M KCl phosphate buffer
Experimental: Each platinum complex was dissolved to a final concentration of 2.0 mM in 0.1 M aqueous KCl buffered with phosphate to either pH 6.0 or 7.4. Cyclic voltammetric (CV) measurements were performed with a model 263 EG&G Princeton Applied Research electrochemical analyzer at varying scan rates of 20-100 mV s^−1. The solvent was degassed by several freeze-pump-thaw cycles and measurements were taken under an atmosphere of argon. The working electrode was made of glassy carbon, the reference electrode was Ag/AgCl, and the counter electrode was a platinum wire. Reported potentials are extrapolated to 0.0 mV s^−1 scan rates to account for the irreversible behavior of the reduction processes.^7

NTera-2 cells [3] = assay: Platinum concentration of cell extracts (cytosolic and nuclear fractions) by AAS; assay type: cell-based, human; settings: 1 μM platinum, 3 h incubation
Experimental: In order to investigate the mechanism by which the SWNTs transport Pt(IV) compounds into cells and release them once inside we devised a strategy to track their intracellular location.
Cell Extract Preparation and Analysis. NTera-2 cells were grown to >90% confluence in 175 cm^2 flasks. These cells were treated separately with 1 μM concentrations of cisplatin, c,c,t-[Pt(NH3)2Cl2(OEt)(O2CCH2CH2CO2H)], and SWNT-Pt(IV) and subsequently incubated for three h at 37° C. The cells were washed thrice with PBS and released by trypsinization into PBS. The cell solutions were centrifuged at 800×g for 10 min and the cell pellets resuspended in 100 μL of ice-cold lysis buffer (1.0 mM DTT (dithiothreitol), 1.0 mM PMSF (phenylmethanesulphonylfluoride), 10 mM KCl, 10 mM MgCl2, pH 7.5) for 15 min. The cells were centrifuged again and the pellets resuspended in 40 μL of ice-cold lysis buffer. The cell membranes were lysed by 10 strokes of a 28 ga. syringe. The resulting suspension was centrifuged at 11,000×g for 20 min and the supernatant was collected as the cytosolic fraction of the cells. […] The lysate was shaken at 1000 rpm for 45 min at […] and then centrifuged at 20,000×g for 10 min at 4° C. The supernatant was collected as the nuclear fraction. The platinum concentration of all fractions was determined by AAS. The protein concentration for each fraction was determined by the bicinchoninic acid (BCA) assay and the total platinum concentration was expressed as nanograms of platinum per microgram of protein (Table 1).

reduction potential (reduction peak) extrapolated to 0.0 mV s^-1 scan rate [2] [V] | reduction potential extrapolated to 0.0 mV s^-1 scan rate [2] [V] | Platinum concentration of cell extracts, Cytosolic (NTera-2 cells [3]) | Platinum concentration of cell extracts, Nuclear (NTera-2 cells [3]) | Molecule | cytotoxicity (in words) (NTera-2 cells [1]) | IC50 (NTera-2 cells [1]) [nM]
−0.499 | −0.604 |  |  | CC[O][Pt]([NH2])([NH2])([OH])([Cl])[Cl] [Compound 1, c,c,t-[Pt(NH3)2Cl2(OH)(OEt)]] | only toxic to cells in micromolar concentrations | 
 |  | 11 Pt(ng)/protein(mg) | 14 Pt(ng)/protein(mg) | cis-[Pt(NH3)2Cl2] [reference compound] | significantly more toxic | 50
−0.623 | −0.724 | 3 Pt(ng)/protein(mg) | 6 Pt(ng)/protein(mg) | CC[O][Pt]([NH2])([NH2])([Cl])([Cl])[O]C(=O)CCC(=O)O [Compound 2, c,c,t-[Pt(NH3)2Cl2(OEt)(O2CCH2CH2CO2H)]] | nearly nontoxic | > 500
